From paper PMC5608352, “Formyl peptide derived lipopeptides disclose differences between the receptors in mouse and men and call the pepducin concept in question” (PLoS ONE, 2017)
“Also recorded” adds a separate entry of the source. Residues, ends and D or L forms follow the SMILES beside them. *: point of attachment. Palmitoyl = CCCCCCCCCCCCCCCC(=O)*

How the values were obtained:
Assay type in all cases: cell-based
Fpr2 [1] = target: T1, Fpr2 (Mus musculus, UniProt O88536); experiment: Inhibition of F2M2-induced superoxide release, WT mouse neutrophils; conditions: mF2Pal16 500 nM; F2M2 150 nM; three independent experiments
T1 construct: WT mouse neutrophils (5 x 10^4 cells) were pre-incubated without (solid line) or with mF2Pal16; endogenous in cells; host or cells: bone marrow neutrophils of C57BL/6 wild-type mice, TNF-alpha primed
T1 sequence (O88536 1-351): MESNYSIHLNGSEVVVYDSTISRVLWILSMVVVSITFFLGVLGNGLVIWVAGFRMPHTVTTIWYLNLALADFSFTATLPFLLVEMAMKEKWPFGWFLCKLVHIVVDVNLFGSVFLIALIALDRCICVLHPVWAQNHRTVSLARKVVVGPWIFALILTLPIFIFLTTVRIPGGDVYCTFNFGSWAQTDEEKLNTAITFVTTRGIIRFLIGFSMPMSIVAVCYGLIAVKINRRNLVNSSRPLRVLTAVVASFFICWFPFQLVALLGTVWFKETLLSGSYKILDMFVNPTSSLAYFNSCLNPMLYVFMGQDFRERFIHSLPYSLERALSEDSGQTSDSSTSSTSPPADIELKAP
Text: (§1) Mice (8–12 weeks of age) were killed by cervical dislocation, the femurs and tibias were removed and freed of soft tissue attachments, and the extreme distal tip of each extremity was cut off. KRG without Ca^2+ and Mg^2+ (KRG-) was forced through the bone by using a 1-mL syringe with a 27-gauge needle. After dispersing cell clumps and removing the debris, the bone marrow granulocytes were isolated according to an earlier described procedure with some modifications. Briefly, a cell suspension in 2 mL of KRG- was laid on top of a three-layer Percoll gradient (1.095, 1.085, and 1.070 g/mL). The density of each Percoll solution was verified using density marker beads. […] The cell number and population of bone marrow cells were determined by flow cytometry based on forward scatter (size) and side scatter (density) localization.
(§2) NADPH-oxidase activity was determined using an isoluminol and HRP-enhanced chemiluminescence (CL) system that allow for the determination of superoxide production. The CL activity was measured in a six-channel Biolumat LB 9505 apparatus (Berthold Co., Wildbad, Germany), using disposable 4-mL polypropylene tubes with 1 mL reaction mixture. […] The light emission was recorded continuously over time and presented as superoxide production (in arbitrary light units, cpm x10^-6) as a function of time (min). […]

FPR2 [2] = experiment: Receptor preference in human neutrophils (FPR2 versus FPR1); conditions: conclusion from superoxide release experiments
Text: (§3) Human peripheral blood neutrophils were isolated from buffy coats from healthy blood donors using dextran sedimentation and Ficoll-Paque gradient centrifugation as described. The remaining erythrocytes were disrupted by hypotonic lysis and the neutrophils were washed twice, suspended in KRG and, stored on melting ice until use. This isolation process permits cells to be purified with minimal granule mobilization. The buffy coats were obtained from the blood bank at Sahlgrenska University Hospital. Ethics approval was not needed since the buffy coats were provided anonymously and could not be traced back to a specific individual. This is in line with Swedish legislation section code 4§ 3p SFS 2003:460 (Lag om etikprövning av forskning som avser människor).
as §2, with “(min). The activity before stimulus addition was recorded as basal line and this activity was not changed in vehicle control samples.” for “(min).”

FPR2 [3] = experiment: Inhibition of PSMα2-induced superoxide release, human neutrophils
Text: as §3
as §2, with “(min). The activity before stimulus addition was recorded as basal line and this activity was not changed in vehicle control samples.” for “(min).”

Fpr2 [4] = target: T1, Fpr2; experiment: Receptor preference in mouse neutrophils (Fpr2 versus Fpr1); conditions: conclusion from superoxide release, Fpr2^-/- cells, desensitization and inhibitors
Text: C57BL/6 wild-type mice were purchased from Charles River Laboratories and Fpr2^−/− mice generated as described previously, were generously provided by Dr Ji Ming Wang, Frederick National Laboratory for Cancer Research, USA. Mice were kept under standard temperature and light conditions and fed laboratory chow and water ad libitum, at the Department of Rheumatology and Inflammation Research, University of Gothenburg. Sex matched WT and Fpr2^-/- animals (age 8–10 weeks) were used to isolated bone marrow derived neutrophils. The studies performed were approved by the Ethical Committee for Animal Experimentation, Göteborg, Sweden.
Mice (8–12 weeks of age) were killed by cervical dislocation, the femurs and tibias were removed and freed of soft tissue attachments, and the extreme distal tip of each extremity was cut off. […] The cell number and population of bone marrow cells were determined by flow cytometry based on forward scatter (size) and side scatter (density) localization.
NADPH-oxidase activity was determined using an isoluminol and HRP-enhanced chemiluminescence (CL) system that allow for the determination of superoxide production. The CL activity was measured in a six-channel Biolumat LB 9505 apparatus (Berthold Co., Wildbad, Germany), using disposable 4-mL polypropylene tubes with 1 mL reaction mixture. […]

Fpr2 [5] = target: T1, Fpr2; experiment: Inhibition of PSMα2-induced superoxide release, WT mouse neutrophils; conditions: mF2Pal16 500 nM, 5 min pre-incubation; PSMα2 10 nM
Text: as §1, §2

mouse neutrophils = target: T2, mouse neutrophils (Mus musculus, UniProt O88536); experiment: Direct activation: superoxide release (isoluminol/HRP chemiluminescence), WT mouse bone marrow neutrophils; conditions: WT mouse (C57BL/6) bone marrow neutrophils, TNF-α primed, 5 x 10^4 cells, 37°C, isoluminol/HRP CL, peak activity; pepducin 1 μM in figures
T2 sequence (O88536 1-351): T1 sequence (O88536 1-351)
Text: Mice (8–12 weeks of age) were killed by cervical dislocation, the femurs and tibias were removed and freed of soft tissue attachments, and the extreme distal tip of each extremity was cut off. KRG without Ca^2+ and Mg^2+ (KRG-) was forced through the bone by using a 1-mL syringe with a 27-gauge needle. After dispersing cell clumps and removing the debris, the bone marrow granulocytes were isolated according to an earlier described procedure with some modifications. Briefly, a cell suspension in 2 mL of KRG- was laid on top of a three-layer Percoll gradient (1.095, 1.085, and 1.070 g/mL). The density of each Percoll solution was verified using density marker beads. After centrifugation at 500 × g for 30 min at 4°C in a swinging bucket rotor, the lowest band (1.085/1.095 g/mL interface) was collected as the neutrophil fraction. After washing with KRG-, remaining red blood cells were eliminated by hypotonic lysis. After a final wash with KRG-, the cells were resuspended in KRG. The cell number and population of bone marrow cells were determined by flow cytometry based on forward scatter (size) and side scatter (density) localization.
NADPH-oxidase activity was determined using an isoluminol and HRP-enhanced chemiluminescence (CL) system that allow for the determination of superoxide production. The CL activity was measured in a six-channel Biolumat LB 9505 apparatus (Berthold Co., Wildbad, Germany), using disposable 4-mL polypropylene tubes with 1 mL reaction mixture. The tubes contained 4 U HRP and 10 μg/mL isoluminol together with the cells that were equilibrated in the Biolumat for 5 min at 37°C, after which the stimulus solution (100 μL) was added. The light emission was recorded continuously over time and presented as superoxide production (in arbitrary light units, cpm x10^-6) as a function of time (min). The activity before stimulus addition was recorded as basal line and this activity was not changed in vehicle control samples. Since the FPR/Fpr-mediated superoxide production with respect to the onset and decline are very similar, the peak activities were used to compare the responses induced.
Naïve bone marrow cells produce very low levels of superoxide upon stimulation and to increase this production the cells were routinely primed for one hour at RT followed by TNF-α (10 ng/mL, final concentration) priming for a period of 20 min at 37°C [10]. The cells were then kept on ice until further analysis, as described above. The reason for choosing the chemiluminescence based NADPH-oxidase assay system was that very few cells are required, allowing us to monitor and quantify receptor-mediated events with the limited number of mouse bone marrow neutrophils available.
Data analysis was performed using Graph Pad Prism 7.0. The EC50/IC50 values were determined from experiments in which the activities were normalized to the response induced by maximal response or induced by agonist in the absence of inhibitor. The statistical analysis was performed on raw data using Student’s t-test when two groups were compared or one-way ANOVA with Dunnett’s multiple comparisons test in comparison to the control response when three groups were compared. * p ≤ 0.05 was considered significant.

human neutrophils = experiment: Direct activation: superoxide release (isoluminol/HRP chemiluminescence), human neutrophils; conditions: 10^5 cells, 37°C, isoluminol/HRP CL, pepducin 1 μM
Text: as §3
as §2, with “(min). The activity before stimulus addition was recorded as basal line and this activity was not changed in vehicle control samples.” for “(min).”

CCCCCCCCCCCCCCCC(=O)N[C@@H](CCCCN)C(=O)N[C@H](C(=O)N[C@@H](CC(N)=O)C(=O)N[C@@H](CCCNC(=N)N)C(=O)N[C@@H](CCCNC(=N)N)C(=O)N[C@@H](CC(N)=O)C(=O)N[C@@H](CC(C)C)C(=O)N[C@H](C(=O)N[C@@H](CC(N)=O)C(=O)N[C@@H](CO)C(=O)N[C@@H](CO)C(=O)N[C@@H](CCCNC(=N)N)C(=O)N1CCC[C@H]1C(=O)N[C@@H](CC(C)C)C(=O)N[C@@H](CCCNC(=N)N)C(=O)N[C@H](C(=O)O)C(C)C)C(C)C)[C@@H](C)CC [mF2Pal16] (Palmitoyl-KINRRNLVNSSRPLRV-OH; C-terminus assumed)
effect on F2M2 response, mouse neutrophils (Fpr2 [1]): inhibitory effect | receptor preference / modulation of FPR2 (versus FPR1) in human neutrophils (FPR2 [2]): potent and selective inhibitor for Fpr2/FPR2; also recorded: inhibits the activity of FPR2 in human neutrophils | effect on PSMα2 response, human neutrophils (FPR2 [3]): largely inhibited | receptor preference / modulation of Fpr2 (versus Fpr1) in mouse neutrophils (Fpr2 [4]): inhibits the activity of Fpr2 in mouse neutrophils; also recorded: potent and selective inhibitor for Fpr2/FPR2; also recorded: targets this receptor | inhibition of PSMα2 response, mouse neutrophils (Fpr2 [5]): potently inhibited | superoxide release / activation of WT mouse neutrophils (mouse neutrophils): No activation of mouse neutrophils | superoxide release / activation of human neutrophils (human neutrophils): did not activate human neutrophils to produce superoxide
